Where a name gives a salt, the structure may show the parent alone.

Holding throughout (test): biochemical
In assay [1] the target is T1, α-1A adrenoreceptor (rat submaxillary gland) (Rattus norvegicus, UniProt P43140).
T1 sequence (P43140 1-466): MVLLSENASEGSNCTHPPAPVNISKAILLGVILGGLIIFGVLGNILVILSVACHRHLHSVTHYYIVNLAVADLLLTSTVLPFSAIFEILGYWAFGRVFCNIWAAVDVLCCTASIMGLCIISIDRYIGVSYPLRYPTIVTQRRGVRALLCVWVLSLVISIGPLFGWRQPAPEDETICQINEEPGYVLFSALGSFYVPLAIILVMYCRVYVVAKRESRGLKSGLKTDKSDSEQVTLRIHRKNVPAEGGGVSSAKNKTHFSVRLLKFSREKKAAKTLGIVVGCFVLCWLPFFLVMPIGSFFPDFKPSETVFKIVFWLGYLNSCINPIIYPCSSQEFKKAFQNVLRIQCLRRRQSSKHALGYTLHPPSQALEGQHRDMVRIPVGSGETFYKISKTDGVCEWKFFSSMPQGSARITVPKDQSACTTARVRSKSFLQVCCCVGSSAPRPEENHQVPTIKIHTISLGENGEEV
It is filed as binding. The following applies: [3H]-prazosin radioligand; rat submaxillary gland membranes; read-out: Radioligand Binding (Ki, nM) 1A (Rat). Put shortly:
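Membranes were prepared from rat submaxillary glands as the α-1A adrenoreceptor source. Competition binding followed Greengrass and Bremner, with bound radioligand measured by scintillation counting.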

A further assay addresses T2, α-1a adrenoreceptor (Bos taurus, UniProt P18130).
T2 sequence (P18130 1-466): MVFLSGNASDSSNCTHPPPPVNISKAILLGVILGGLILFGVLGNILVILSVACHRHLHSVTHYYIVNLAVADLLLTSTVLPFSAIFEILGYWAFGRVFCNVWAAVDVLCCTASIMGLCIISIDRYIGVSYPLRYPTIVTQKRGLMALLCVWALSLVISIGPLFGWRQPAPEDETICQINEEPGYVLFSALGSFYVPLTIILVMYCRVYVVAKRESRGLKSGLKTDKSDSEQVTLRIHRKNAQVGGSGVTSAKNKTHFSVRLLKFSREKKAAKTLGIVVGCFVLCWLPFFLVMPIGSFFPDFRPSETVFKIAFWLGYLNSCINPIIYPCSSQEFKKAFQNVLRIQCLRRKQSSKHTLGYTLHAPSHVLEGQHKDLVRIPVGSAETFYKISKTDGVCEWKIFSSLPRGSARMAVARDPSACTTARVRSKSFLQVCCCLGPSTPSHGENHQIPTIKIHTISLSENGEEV
It is filed as binding, bovine. The following applies: [3H]-prazosin radioligand; cloned receptor in LTK cell membranes; read-out: Radioligand Binding (Ki, nM) 1a (Bovine). Put shortly: (§1)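 Membranes were prepared from high-density single-cell clones of transfected LTK cells, plus rat submaxillary gland for the α-1A site. Binding was measured by radioligand displacement with scintillation counting.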

A further assay addresses T3, α-1b adrenoreceptor (Mesocricetus auratus, UniProt P18841).
T3 sequence (P18841 1-515): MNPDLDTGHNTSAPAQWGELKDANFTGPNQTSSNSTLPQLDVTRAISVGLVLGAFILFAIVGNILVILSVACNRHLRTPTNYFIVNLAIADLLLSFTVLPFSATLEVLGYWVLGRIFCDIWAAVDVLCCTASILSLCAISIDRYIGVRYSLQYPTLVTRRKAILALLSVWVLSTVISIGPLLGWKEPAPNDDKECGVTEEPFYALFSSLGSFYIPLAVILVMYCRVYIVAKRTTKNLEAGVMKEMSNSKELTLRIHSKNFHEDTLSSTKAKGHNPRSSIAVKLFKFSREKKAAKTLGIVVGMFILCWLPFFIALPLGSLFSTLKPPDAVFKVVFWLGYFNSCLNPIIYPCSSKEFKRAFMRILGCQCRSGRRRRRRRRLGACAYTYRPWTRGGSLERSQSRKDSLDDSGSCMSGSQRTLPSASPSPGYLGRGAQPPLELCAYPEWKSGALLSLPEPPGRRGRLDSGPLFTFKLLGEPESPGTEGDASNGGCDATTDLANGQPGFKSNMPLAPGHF
It is filed as binding, hamster. The following applies: [3H]-prazosin radioligand; cloned receptor in LTK cell membranes; read-out: Radioligand Binding (Ki, nM) 1b (Hamster). The gist of the method:
as §1

The next assay deals with T4, α-1d adrenoreceptor (Rattus norvegicus, UniProt P23944).
T4 sequence (P23944 1-561): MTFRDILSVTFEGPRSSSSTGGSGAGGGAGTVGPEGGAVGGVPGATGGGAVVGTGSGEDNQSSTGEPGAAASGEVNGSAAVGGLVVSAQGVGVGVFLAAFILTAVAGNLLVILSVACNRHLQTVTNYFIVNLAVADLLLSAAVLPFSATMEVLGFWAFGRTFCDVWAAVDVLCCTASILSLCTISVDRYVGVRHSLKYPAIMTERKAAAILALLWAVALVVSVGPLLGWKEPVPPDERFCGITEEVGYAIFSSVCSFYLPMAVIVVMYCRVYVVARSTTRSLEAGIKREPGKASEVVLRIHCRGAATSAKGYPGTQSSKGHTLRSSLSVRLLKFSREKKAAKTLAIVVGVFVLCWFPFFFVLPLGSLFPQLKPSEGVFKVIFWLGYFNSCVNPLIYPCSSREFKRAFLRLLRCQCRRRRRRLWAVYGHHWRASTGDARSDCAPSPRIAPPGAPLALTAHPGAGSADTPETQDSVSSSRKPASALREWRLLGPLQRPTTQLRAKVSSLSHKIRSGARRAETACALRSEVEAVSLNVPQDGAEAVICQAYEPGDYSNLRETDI
The assay is classed as binding. The following applies: [3H]-prazosin radioligand; cloned receptor in LTK cell membranes; read-out: Radioligand Binding (Ki, nM) 1d (Rat). Put shortly:
as §1

For the compound `COc1cccc2c1[C@@H]1CN(CCCCn3c(=O)[nH]c4c(sc5ncc(-c6ccsc6)nc54)c3=O)C[C@@H]1CO2` [Example 57, 3-[4-((3aR,9bR)-cis-9-Methoxy-1,2,3,3a,4,9b-hexahydro-[1]-benzopyrano[3,4-c]pyrrol-2-yl)butyl]-8-(3-thienyl)-pyrazino[2',3':4,5]thieno[3,2-d]pyrimidine-2,4(1H,3H)-dione dihydrochloride], the Ki in assay [1] amounted to 0.682 nM; at α-1a adrenoreceptor, 0.078 nM; on α-1b adrenoreceptor, 19.3 nM; at α-1d adrenoreceptor, 0.507 nM.

For the compound `COc1cccc2c1[C@@H]1CN(CCCCn3c(=O)[nH]c4c(sc5ccc(-c6cccnc6)nc54)c3=O)C[C@H]1CO2` [Example 58, 3-[4-((3aS,9bR)-trans-9-Methoxy-1,2,3,3a,4,9b-hexahydro-[1]-benzopyrano[3,4-c]pyrrol-2-yl)butyl]-8-(3-pyridyl)-pyrido[2',3':4,5]thieno[3,2-d]pyrimidine-2,4(1H,3H)-dione trihydrochloride], the Ki is 0.273 nM in assay [1], 0.188 nM at α-1a adrenoreceptor, 2.08 nM at α-1b adrenoreceptor and 0.039 nM on α-1d adrenoreceptor.

As for `COc1cccc2c1[C@@H]1CN(CCCCn3c(=O)[nH]c4c(sc5ncc(-c6ccsc6)nc54)c3=O)C[C@H]1CO2` [Example 59, 3-[4-((3aS,9bR)-trans-9-Methoxy-1,2,3,3a,4,9b-hexahydro-[1]-benzopyrano[3,4-c]pyrrol-2-yl)butyl]-8-(3-thienyl)-pyrazino[2',3':4,5]thieno[3,2-d]pyrimidine-2,4(1H,3H)-dione dihydrochloride], the Ki in assay [1] is 0.166 nM; at α-1a adrenoreceptor, 0.049 nM; at α-1b adrenoreceptor, 6.74 nM; at α-1d adrenoreceptor, 0.257 nM.

As for `COc1cccc2c1[C@@H]1CN(CCCCn3c(=O)[nH]c4c(sc5ncc(-c6cccnc6)nc54)c3=O)C[C@H]1CO2` [Example 60, 3-[4-((3aS,9bR)-trans-9-Methoxy-1,2,3,3a,4,9b-hexahydro-[1]-benzopyrano[3,4-c]pyrrol-2-yl)butyl]-8-(3-pyridyl)-pyrazino[2',3':4,5]thieno[3,2-d]pyrimidine-2,4(1H,3H)-dione dihydrochloride], the Ki in assay [1] was 0.187 nM; on α-1a adrenoreceptor it was 0.078 nM; at α-1b adrenoreceptor, 14.2 nM; at α-1d adrenoreceptor, 1.82 nM.

In the case of `COc1cccc2c1[C@@H]1CN(CCCCn3c(=O)[nH]c4c(sc5ncc(-c6cccnc6)nc54)c3=O)C[C@@H]1CO2` [Example 61, 3-[4-((3aR,9bR)-cis-9-Methoxy-1,2,3,3a,4,9b-hexahydro-[1]-benzopyrano[3,4-c]pyrrol-2-yl)butyl]-8-(3-pyridyl)-pyrazino[2',3':4,5]thieno[3,2-d]pyrimidine-2,4(1H,3H)-dione dihydrochloride], the Ki in assay [1] came to 0.152 nM; on α-1a adrenoreceptor it was 0.15 nM; at α-1b adrenoreceptor it was 8.85 nM; at α-1d adrenoreceptor, 0.336 nM.

For the compound `COc1cccc2c1[C@@H]1CN(CCCCn3c(=O)[nH]c4c(sc5ncc(-c6ccoc6)nc54)c3=O)C[C@@H]1CO2` [Example 62, 3-[4-((3aR,9bR)-cis-9-Methoxy-1,2,3,3a,4,9b-hexahydro-[1]-benzopyrano[3,4-c]pyrrol-2-yl)butyl]-8-(3-furyl)-pyrazino[2',3':4,5]thieno[3,2-d]pyrimidine-2,4(1H,3H)-dione dihydrochloride], the Ki in assay [1] came to 983 nM; on α-1a adrenoreceptor, 52 nM; on α-1b adrenoreceptor, 1150 nM; at α-1d adrenoreceptor, 411 nM.

With `COc1cccc2c1[C@@H]1CCN(CCCn3c(=O)[nH]c4c(sc5cccnc54)c3=O)C[C@H]1CO2` [Example 92, 3-[3-((4aS,10bR)-trans-10-Methoxy-1,3,4,4a,5,10b-hexahydro-2H-[1]-benzopyrano[3,4-c]pyrido-3-yl)propyl]-pyrido[2',3':4,5]thieno[3,2-d]pyrimidine-2,4(1H,3H)-dione dihydrochloride], the Ki was 3.85 nM in assay [1], 2.2 nM on α-1a adrenoreceptor, 45.1 nM on α-1b adrenoreceptor and 18.5 nM on α-1d adrenoreceptor.

On to `COc1cccc2c1[C@H]1CCN(CCCn3c(=O)[nH]c4c(sc5cccnc54)c3=O)C[C@@H]1CO2` [Example 93, 3-[3-((4aR,10bS)-trans-10-Methoxy-1,3,4,4a,5,10b-hexahydro-2H-[1]-benzopyrano[3,4-c]pyrido-3-yl)propyl]-pyrido[2',3':4,5]thieno[3,2-d]pyrimidine-2,4(1H,3H)-dione dihydrochloride], for which the Ki in assay [1] worked out at 4.04 nM; at α-1a adrenoreceptor it was 1.2 nM; on α-1b adrenoreceptor it was 3.67 nM; at α-1d adrenoreceptor, 11.5 nM.

`COc1cccc2c1[C@H]1CCN(CCCCn3c(=O)[nH]c4c(sc5cccnc54)c3=O)C[C@@H]1CO2` [Example 94, 3-[4-((4aR,10bS)-trans-10-Methoxy-1,3,4,4a,5,10b-hexahydro-2H-[1]-benzopyrano[3,4-c]pyrido-3-yl)butyl]-pyrido[2',3':4,5]thieno[3,2-d]pyrimidine-2,4(1H,3H)-dione dihydrochloride]: the Ki in assay [1] was found to be 0.185 nM; at α-1a adrenoreceptor, 0.097 nM; at α-1b adrenoreceptor it was 1.97 nM; on α-1d adrenoreceptor, 0.361 nM.

Consider `COc1cccc2c1[C@H]1CCN(CCCCn3c(=O)[nH]c4c(sc5ncc(Cl)nc54)c3=O)C[C@@H]1CO2` [Example 96, 3-[4-((4aR,10bS)-trans-10-Methoxy-1,3,4,4a,5,10b-hexahydro-2H-[1]-benzopyrano[3,4-c]pyrido-3-yl)butyl]-8-chloro-pyrazino[2',3':4,5]thieno[3,2-d]pyrimidine-2,4(1H,3H)-dione dihydrochloride], for which the Ki in assay [1] came out at 0.816 nM; on α-1a adrenoreceptor, 0.211 nM; on α-1b adrenoreceptor, 10.4 nM; on α-1d adrenoreceptor it was 0.816 nM.

`COc1ccc2sc3c(=O)n(CCCCN4CC[C@H]5c6c(OC)cccc6OC[C@@H]5C4)c(=O)[nH]c3c2n1` [Example 98, 3-[4-((4aS,10bR)-trans-10-Methoxy-1,3,4,4a,5,10b-hexahydro-2H-[1]-benzopyrano[3,4-c]pyrido-3-yl)butyl]-8-methoxy-pyrido[2',3':4,5]thieno[3,2-d]pyrimidine-2,4(1H,3H)-dione hydrochloride]: the Ki in assay [1] came to 1.02 nM; at α-1a adrenoreceptor, 0.121 nM; on α-1b adrenoreceptor, 2.65 nM; on α-1d adrenoreceptor, 0.324 nM.
